Results on three compounds are retold here after patent US9480695B2, “Methods for inducing orexin neurons and agent for treating narcolepsy or eating disorder” (THE UNIVERSITY OF TOKYO, priority 2011, dated 2016).

Format in all cases: cell-based
Assay [1] concerns Mouse ES cells (J1 strain). The experiment in a line: Induction of Hcrt expression in neural differentiation from mouse ES cells, SDIA differentiation culture system, RT-PCR. As to conditions: for Expression of Hcrt with changed time of addition: 1.0 mM, addition time varied, FIG. 3; for Expression of an orexin gene (Hcrt): added from initiation of differentiation culturing at 0.2 and 1.0 mM, cells collected on 10th day, FIG. 2. As for the experimental part:
Mouse ES cells (J1 strain) which had been maintained in a medium for an ES cell [DMEM (Wako) added with 15% FBS (Biowest), 1 mM sodium pyruvate (Invitrogen), […] (Invitrogen), 2 mM L-glutamine (Invitrogen), 1 mM non essential amino acid (Invitrogen), 50 U/ml penicillin/50 μg/ml streptomycin (Invitrogen), 2000 U leukemia inhibitory factor (Chemicon, CA)] were seeded on a 10 cm culture dish so that the cell count became 1×10^5 cells per culture dish on which PA6 stromal cells had been seeded in advance, and differentiation induction was performed in a medium for neural differentiation [Glasgow MEM (Invitrogen) added with 10% KSR (Invitrogen), […] (Invitrogen), 1 mM non essential amino acid (Invitrogen), 50 U/ml penicillin/50 μg/ml streptomycin (Invitrogen)] for 10 days. On 4th and 7th days of differentiation culturing, the medium was exchanged. In addition, from 4th day of differentiation culturing, 5 nM recombinant human BMP4 (Wako) was added (FIG. 1). On 10th day of differentiation culturing, cells were collected and pelletized by a centrifugation operation to remove the culture medium. Thereafter, the pellets were immediately frozen in liquid nitrogen and stored at −80° C. until use.
The total RNA was extracted from the collected cells using RNeasy plus Mini Kit (QIAGEN). Then, a reverse transcription reaction was performed in a reaction liquid containing 1 μg of the total RNA, and Oligo (dT) using SuperScript III First Strand Synthesis System (Invitrogen) to synthesize a cDNA.
A PCR reaction was performed on a 10 μl scale, 1 U of LA-Taq DNA Polymerase (Takara) was added to 0.5 μl of a cDNA, 5 μl of 2×GC Buffer I, each 200 μM of dNTP, 1.5 mM MgCl2, and each primer having a final concentration of 0.2 μM, thermal denaturation was performed at 95° C. for 3 minutes, and the reaction was performed under the condition of (30 seconds at 95° C., 30 seconds at 55° C., and 30 seconds at 72° C.)×35 cycles (20 cycles in the case of Actb). The primers used are shown below.
Each PCR product was electrophoresed on a 2% agarose gel, stained with ethidium bromide, and a band was observed by UV irradiation.

Assay [2] has as its system Mouse ES cells (J1 strain). Description: Hcrt expression with ManNAc plus Sirt inhibitor or Ogt inhibitor, neural differentiation from mouse ES cell, RT-PCR. The note with it: ManNAc 1.0 mM from 0th day, EX-527 50 nM on 7th day, collected 10th day; FIG. 8. As for the experimental part: According to the same manner as that described in Example 1, mouse ES cells (J1 strain) were cultured for 10 days for differentiation induction into a nerve cell. A protocol of inducing differentiation into a nerve cell is shown in the upper column of FIG. 11. From the initiation of differentiation culturing (0th day), ManNAc was added to a neural differentiation medium so that the concentration became 1.0 mM, and the medium was exchanged on 4th and 7th days of differentiation culturing. In addition, from 4th day of differentiation culturing, 5 nM recombinant human BMP4 (Wako) was added. On 7th day of differentiation culturing, EX-527 (SIGMA-ALDRICH) was added to a neural differentiation medium so that the concentration became 50 nM or BADGP (SIGMA-ALDRICH) was added to a neural differentiation medium so that the concentration became 1 or 5 mM, and on 10th day of differentiation culturing, cells were collected and subjected to RT-PCR. The conditions of RT-PCR are the same as those of Example 1.

Assay [3] deals with human iPS cell strain 201B7. The experiment in a line: Hcrt expression with ManNAc plus Sirt inhibitor and Ogt inhibitor, neural differentiation from human iPS cell, RT-PCR. The note with it: ManNAc 1.0 mM from 0th day, EX-527 50 nM and/or BADGP 5 mM on 14th day, collected 20th day; FIG. 10. As for the experimental part: A human iPS cell strain 201B7 (HSP0001) was obtained from Riken BioResource Center via National BioResource Project (MEXT, Japan). The human iPS cell was maintained on a feeder layer of a mitomycin C-treated STO/Neo resistant/LIF (SNL) feeder cell in a primate ES medium (ReproCELL) complemented with 5 ng/mL recombinant human bFGF (Wako). The human iPS cell was co-cultured with PA6 for 20 days, for differentiation induction into a nerve with a SIDA and BMP4 system. From 7th day, 5 nM BMP4 was complemented. A detailed protocol of differentiation induction into a nerve cell is shown in the lower column of FIG. 11. From the initiation of differentiation culturing (0th day), ManNAc was added to a neural differentiation medium so that the concentration became 1.0 mM, and on 7th, 10th and 14th days of differentiation culturing, the medium was exchanged. In addition, from 7th day of differentiation culturing, 5 nM recombinant human BMP4 (Wako) was added. On 14th day of differentiation culturing, EX-527 (SIGMA-ALDRICH) was added to a neural differentiation medium so that the concentration became 50 nM, or BADGP (SIGMA-ALDRICH) was added to a neural differentiation medium so that the concentration became 5 mM, and on 20th day of differentiation culturing, cells were collected and subjected to RT-PCR. The conditions of RT-PCR are the same as those of Example 1.

The test system of assay [4] is Mouse ES cells (J1 strain). The experiment in a line: Hcrt expression in mouse ES cells, SFEB/gfCDM differentiation culture system, RT-PCR. The note with it: 1.0 mM from 7th day of differentiation culturing; cells collected on 25th day; FIG. 5. As for the experimental part:
Mouse ES cells (J1 strain) which had been maintained in a medium for an ES cell were seeded on a 96-well low adhering round-bottom culture dish (Nunc) so that the cell count became 10,000 cells per well, and cultured with gfCDM [IMDM/F12 (Invitrogen) added with 5 mg/ml BSA (SIGMA), 450 μM Monothioglycerol (Wako), 1× chemically defined lipid concentrate (Invitrogen), 50 U/ml penicillin/50 μg/ml streptomycin] for 7 days. The cells were cultured in 150 μl of a medium per well. On 7th day of differentiation culturing, the medium was exchanged with a DFK medium [DMEM/F12 (Invitrogen) added with 7 g/1 glucose, 10% KSR, 50 U/ml penicillin/50 μg/ml streptomycin], and on 10th day, half the amount of the medium was exchanged with a DFNB medium [7 g/1 glucose, 1×N2 (Wako), 1×B27 (Invitrogen)] containing 10 ng/ml CNTF. On 13th day of culturing, cells were detached with 0.05% trypsin/EDTA, seeded on a culture dish (Falcon) which had been treated with poly-D-lysine/laminin so that the cell count became 4.8×10^6 cells per 10 cm culture dish, and cultured in a DFNB medium containing 10% FBS, 10 ng/ml CNTF, 50 ng/ml BDNF and 50 ng/ml NT3. The medium was exchanged every 3 days. On 25th day of differentiation culturing, cells were collected and pelletized by a centrifugation operation to remove the culture medium. Thereafter, the pellets were immediately frozen in liquid nitrogen, and stored at −80° C. until use.
The analysis was performed by the same method as that of Example 1.

For the compound `CC(=O)N[C@H]1C(O)O[C@H](CO)[C@@H](O)[C@@H]1O` (stereo partly drawn) [GlcNAc, N-acetyl-D-glucosamine], in assay [1], the “Expression of Hcrt with changed time of addition” value is given as “observed only in a ManNAc-added section” and the “Expression of an orexin gene (Hcrt)” value was “recognized only in a ManNAc-added section”.

As to `NC(=O)C1CCCc2c1[nH]c1ccc(Cl)cc21` (stereo not shown) [EX-527, 6-chloro-2,3,4,9-tetrahydro-1H-carbazole-1-carboxamide, reference compound], the “Expression of an orexin gene (Hcrt)” value in assay [2] was “expression of Hcrt was recognized”; in assay [3] it was “recognized in a ManNAc-added section and an EX-527-added section to the same extent”.

`CC(=O)N[C@H]1[C@H]([C@H](O)[C@H](O)CO)OC(O)(C(=O)O)C[C@@H]1O` (stereo partly shown) [Neu5Ac, N-acetylneuraminic acid]: the “Expression of Hcrt” value in assay [4] is on record as “expression of Hcrt was recognized”. In addition, in assay [1], the “Expression of Hcrt with changed time of addition” value was “observed only in a ManNAc-added section” and the “Expression of an orexin gene (Hcrt)” value was “recognized only in a ManNAc-added section”.
